Measurements from US20250100962A1 (CITY OF HOPE, priority 2023, published 2025).
Entries after “also recorded” stand apart in the source; their conditions may differ.

Columns and labels:
mdx primary myoblasts = test: EdU proliferation in mdx primary myoblasts; format: cell-based, mouse; conditions: 0.5-1 μM; 6 hours
Text: FIGS. 16A-16B. Pro-myogenic effect of chlorhexidine on dystrophin-deficient mdx primary myoblasts. FIG. 16A: We used primary myoblasts isolated from male mdx mice as a cellular model to test the effect of CHX on myogenesis. […] Both of the pro-myogenic and proliferative effects of CHX observed in mdx primary myoblasts were consistent with prior findings from C2C12 myoblasts. Additional validations of these effects are on-going using myoblasts derived from human DMD patients.

3T3-L1 preadipocytes = test: Adipogenic differentiation of 3T3-L1 preadipocytes; format: cell-based
Description: Cell culture and adipogenic differentiation. 3T3-L1 and C3H10T1/2 cell lines were obtained from ATCC, and maintained in DMEM with 10% fetal bovine serum supplemented with 1% Penicillin-Streptomycin-Glutamine, as previously described (Nam, Guo, Chatterjee et al., 2015; Liu, Xiong, Nam et al., 2020). 0.25% Trypsin was used for digestion and passaging of these cell lines. For adipogenic differentiation induction media (1.6 μM insulin, 1 μM dexamethasone, 0.5 mM IBMX, 0.5 uM Rosiglitazone) was used for 3 days followed by maintenance medium with insulin for 3 days for 3T3-L1 and 5 days for C3H10T1/2 cells, as previously described (Liu et al., 2020). Oil-red-O and Bodipy staining. These stainings for neutral lipids during adipogenic differentiation were performed as previously described (Nam et al., 2015). Briefly, for oil-red-O staining, cells were fixed using 10% formalin and incubated using 0.5% oil-red-O solution for 1 hour. Bodipy 493/503 was used at 1 mg/L together with DAPI for 15 minutes, following 4% paraformaldehyde fixation and permeabilization with 0.2% triton-X100. Immunoblot analysis. Total protein was extracted using lysis buffer containing 3% NaCl, 5% Tris-HCl, 10% Glycerol, 0.5% Triton X-10 in MilliQ water with protease inhibitor cocktail. 20-40 μg of total protein was resolved on 10% SDS-PAGE gels followed by immunoblotting on PVDF membranes (Bio-rad). […]

C2C12 myoblasts [1] = test: Wound healing assay of C2C12 myoblasts; format: cell-based, mouse; conditions: 8 and 24 hours; 0.2 to 1 μM; vs DMSO
Description: Cells were seeded at 12×10^5 concentration on 6 well plates until 90% coverage and treated with compounds as indicated and controls while maintained 10% FBS 1% PSG DMEM. Scratch wounds were made with disposable cells scrapers and pictures were taken at hours 0, 4, 8, 24 and 48 following scratch. The results were measured as percentage coverage over original wound area based on image quantification. Area of wound closure was measured using Image J software.

C2C12 myoblasts [2] = test: Clock and Wnt pathway gene/protein expression in C2C12 myoblasts during myogenic differentiation; format: cell-based, mouse
Description: Total protein (20-30 μg) was extracted using standard IP Lysis buffer (3% NaCl, 5% Tris-HCl, 10% Glycerol, 0.5% Triton X-10 in Sterile MilliQ water) and resolved on 10% SDS-Page gels followed by western blotting on Immun-Blot PVDF Membranes for Protein Blotting (Bio-rad). Antibodies used were diluted in 5% milk (Labscientific CN: M0841). Membranes were washed with TBS-T [10% TBS, 0.1% Tween™ 20 (Fisher BioReagents CN: BP377-500)]. Images were developed using Luminol solution 1:1 SuperSignal West Pico PLUS Stable Peroxide Solution (Thermo Scientific CN: 1863095) and SuperSignal West Pico PLUS Luminol Enhancer Solution (Thermo Scientific CN: 1863094) on chemiluminescence imager (GE Healthcare Bio-Sciences AB Amersham Imager 680).
Cells extracted with TRIzol™ Reagent (Ambion CN: 15596018) were collected. RNA extraction was performed with Chloroform (Fisher Chemical CN: C298-500) and Isopropanol (Fisher Chemical CN: A451SK-4) extraction followed by two purification steps with 75% Ethanol (Fisherbrand CN: HC-800-1GAL) and elution in Sterile MilliQ water.
The RNA concentration was measured using Nanodrop spectrophotometer (Thermo Fisher). Following RNA extraction, retro transcription was performed using RevertAid RT Reverse Transcription Kit (Thermo Fisher CN: K1691) and run on SimpliAmp Thermal Cycler (Thermo Fisher CN: A24811) according to the kit procedure. Quantitative PCR was performed using PowerUp™ SYBR™ Green Master Mix (Thermo Fisher CN: A25742) using a dilution of 5:2:1 master mix, RNA and H2Omq according to the protocol on ViiA 7 Real-Time PCR System (Applied Biosystems). Relative expression levels were determined using the comparative Ct method to normalize target genes to 36B4 internal controls.
Pictures were taken every day to monitor morphological progression, and proteins and RNA samples were collected on days indicated.

[3] = In vivo pharmacokinetics after intravenous tail vein injection; parameters: species or system mouse; conditions: 1 mg/kg intravenous
Description: FIGS. 47A-47C. In vivo PK study of CM002 by intravenous administration in C57/BL6 mice. We next performed pharmacokinetic analysis of CM002 in normal wild-type C57/BL6 mice to guide in vivo studies. Following intravenous delivery of CM002 via tail vein injection at 1 mg/kg of body weight in three mice of 12 weeks of age, we monitored its plasma concentrations at 6 hours (FIG. 47A) and 24 hours (FIG. 47B). […] Quantitative analysis of key pharmacokinetic parameters is shown in FIG. 47C, based on 1 mg/kg/day intravenous administration.

cells = test: Cellular toxicity observed across cell assays; format: cell-based

[H]/N=C(\N/C(=N/[H])NCCCCCCNC(=N)NC(=N)Nc1ccc(Cl)cc1)Nc1ccc(Cl)cc1 [CHX, chlorhexidine]
increase of rate of proliferation (EdU) (mdx primary myoblasts): ~22% | formation of lipid-laden mature adipocyte (3T3-L1 preadipocytes; day 6, oil-red-O, Bodipy): sufficient to inhibit the formation of lipid-laden mature adipocyte in a dose-dependent manner | C/EBPα and PPARγ levels (3T3-L1 preadipocytes; differentiation day 6): only moderate tendency of lowering of C/EBPα and PPARγ levels | wound area closure (migration) (C2C12 myoblasts [1]): significantly increased | CLOCK and Bmal1 protein levels with targets Rev-erbα and Cry2 (C2C12 myoblasts [2]; 0.5 uM, through 6 days of differentiation): robustly stimulated | induction of Wnt10a, Fzd5 and β-catenin in Bmal1-deficient myoblasts (C2C12 myoblasts [2]; BMKD myoblasts): completely abolished in Bmal1-deficient myoblasts; also recorded: abolished in Bmal1-deficient cells | induction of Clock, Bmal1, Rev-erbα and Per2 in Bmal1 shRNA (BMKD) cells (C2C12 myoblasts [2]; day 4 of myogenic differentiation, vs scrambled control): completely abolished in the BMKD cells | Wnt10a, Fzd5 and β-catenin expression (C2C12 myoblasts [2]; scrambled control (SC) myoblasts, RT-qPCR): significantly induced by CHX at 0.5 μM with tendency toward induction at 0.2 μM

CCCCCC/C=N/C(=N)NC(=N)Nc1ccc(Cl)cc1 [CM002]
plasma level at half-life [3]: ~100 ng/mL | time of tissue re-distribution [3]: ≤ 30 min | time to being largely cleared [3]: ≤ 24 h | maximal plasma concentration ([3]; C57/BL6 mice): ~1.47 mg/L | half-life ([3]; mouse, plasma, C57/BL6 mice): 6.76 ± 1.33 h | viability of cells at 1 μM (cells): maintained
